Assay results taken from ChEMBL document CHEMBL5500329, “Identification of dihydroquinolizinone derivatives with nitrogen heterocycle moieties as new anti-HBV agents” (Eur J Med Chem, 2024).

Assays:
[1] = test system: Hepatitis B virus; test: Antiviral activity against Hepatitis B virus assessed as inhibition of HbsAg level; assay type: functional, organism-based
[2] = test system: Hepatitis B virus; test: Antiviral activity against Hepatitis B virus assessed as inhibition of HBV DNA production; assay type: functional, organism-based
[3] = Half-life in mouse at 10 mg/kg, po administered as single dose; assay type: ADME, organism-based; conditions: in vivo
[4] = AUC (0 to infinity) in mouse at 10 mg/kg, po administered as single dose; assay type: ADME, organism-based; conditions: in vivo
[5] = MRT (0 to infinity) in mouse at 10 mg/kg, po administered as single dose; assay type: ADME, organism-based; conditions: in vivo
[6] = test system: HT-22; test: Cytotoxicity against mouse HT-22 cells assessed as reduction in cell viability at 10 uM; assay type: toxicity, cell-based; conditions: ht-22, 10 µM
[7] = Neurotoxicity in PAPD7-knockout mouse HT-22 cells assessed as reduction in neurite length; assay type: toxicity, cell-based
[8] = Neurotoxicity in mouse HT-22 cells assessed as reduction in neurite length at 10 to 30 uM incubated for 24 to 48 hrs; assay type: toxicity, cell-based; conditions: ht-22, 30 µM, dose lower 10 µM, time lower 24 hrs, dose upper 30 µM, time upper 48 hrs
[9] = Cmax in mouse at 10 mg/kg, po administered as single dose; assay type: ADME, organism-based; conditions: in vivo
[10] = test system: HT-22; test: Cytotoxicity against mouse HT-22 cells assessed as reduction in cell viability at 30 uM; assay type: toxicity, cell-based; conditions: ht-22, 30 µM
[11] = Neurotoxicity in PAPD5-knockout mouse HT-22 cells assessed as reduction in neurite length; assay type: toxicity, cell-based
[12] = test system: Hepatitis B virus; test: Antiviral activity against Hepatitis B virus assessed as inhibition of HbeAg level; assay type: functional, organism-based
[13] = Tmax in mouse at 10 mg/kg, po administered as single dose; assay type: ADME, organism-based; conditions: in vivo
[14] = Cytotoxicity against mouse HT-22 cells assessed as cell viability at 30 uM relative to control; assay type: toxicity, cell-based; conditions: read-out: Activity
[15] = Neurotoxicity in mouse HT-22 cells assessed as reduction in neurite length at 10 uM; assay type: toxicity, cell-based; conditions: ht-22, 10 µM
[16] = Neurotoxicity in mouse DRG neuron assessed as reduction in neurite length at 10 uM incubated for 24 hrs; assay type: toxicity, cell-based
[17] = Neurotoxicity in mouse HT-22 cells assessed as reduction in neurite length at 30 uM incubated for 48 hrs; assay type: toxicity, cell-based; conditions: ht-22, 48 h

| IC50 [1] [nM] | IC50 [2] [nM] | IC50 [12] [nM] | Compound | other results |
| --- | --- | --- | --- | --- |
| 5 | 86 | 91 | COCCCOc1cc2c(cc1OC)-c1cc(=O)c(C(=O)O)cn1[C@H](C(C)C)C2 | half-life [3]: 2.39 h; AUC(0-inf) [4]: 10800 ng·h/mL; MRT inf [5]: 1.66 h; Activity [6]: Non-Toxic; Activity [7]: Toxic; Activity [8]: Toxic; Cmax [9]: 6630 ng/mL; Activity [10]: Non-Toxic; Activity [11]: Toxic; Tmax [13]: 0.42 h |
| 0.6 | 0.6 | 0.6 | COc1cc2c(cc1OC[C@@H]1CCCO1)C[C@@H](C(C)C)n1cc(C(=O)O)c(=O)cc1-2 |  |
| 33 | 47.3 | 319 | COc1cc2c(cc1OCCCN1CCC3(C1)OCCO3)CC(C(C)C)n1cc(C(=O)O)c(=O)cc1-2 (stereo not drawn) |  |
| 23 |  | 195 | COc1cc2c(cc1OCCCN1CCC3(C1)OCCO3)C[C@@H](C(C)C)n1cc(C(=O)O)c(=O)cc1-2 | Activity [6]: Non-Toxic; viability at 30 µM [14]: 74.9% |
| 8 | 8 | 99 | COc1cc2c(cc1N1CCOCC1)CC(C(C)C)n1cc(C(=O)O)c(=O)cc1-2 (stereo not drawn) |  |
| 189 |  | 856 | COc1cc2c(cc1OCCCN1CCC3(C1)OCCO3)C[C@H](C(C)C)n1cc(C(=O)O)c(=O)cc1-2 |  |
| 193 | 31 | > 1000 | COc1cc2c(cc1OCCCN1CCC3(CCOC3)C1)CC(C(C)C)n1cc(C(=O)O)c(=O)cc1-2 (stereo not drawn) |  |
| 41 | 300 | > 1000 | COc1cc2c(cc1N1CCC(O)CC1)CC(C(C)C)n1cc(C(=O)O)c(=O)cc1-2 (stereo not drawn) |  |
| 599 |  | > 1000 | COc1cc2c(cc1N1CCOCC1)C[C@H](C(C)C)n1cc(C(=O)O)c(=O)cc1-2 |  |
| 23 |  | 287 | COc1cc2c(cc1N1CCOCC1)C[C@@H](C(C)C)n1cc(C(=O)O)c(=O)cc1-2 | Activity [15]: Non-Toxic; Activity [16]: Non-Toxic; half-life [3]: 2.09 h; AUC(0-inf) [4]: 23400 ng·h/mL; MRT inf [5]: 2.69 h; Activity [6]: Non-Toxic; Cmax [9]: 7620 ng/mL; Activity [17]: Non-Toxic; Activity [10]: Non-Toxic; Tmax [13]: 0.58 h |
| 151 | 38 | 47 | COc1cc2c(cc1OC1CCC3(CCOCC3)CC1)CC(C(C)C)n1cc(C(=O)O)c(=O)cc1-2 (stereo not drawn) |  |

More lines, now with the values behind:

| Compound | IC50 [1] [nM] | IC50 [2] [nM] | IC50 [12] [nM] | other results |
| --- | --- | --- | --- | --- |
| COc1cc2c(cc1N1CCC3(C1)OCCO3)CC(C(C)C)n1cc(C(=O)O)c(=O)cc1-2 (stereo not drawn) | 1.8 | 7.6 | 38 |  |
| COc1cc2c(cc1N1CCC3(CCOCC3)C1)CC(C(C)C)n1cc(C(=O)O)c(=O)cc1-2 (stereo not drawn) | 0.6 | < 1.6 | 5 |  |
| COc1cc2c(cc1N1CCC3(CCOCC3)C1)C[C@H](C(C)C)n1cc(C(=O)O)c(=O)cc1-2 | 100 |  | 875 |  |
| COc1cc2c(cc1N1CCC3(CCOC3)C1)CC(C(C)C)n1cc(C(=O)O)c(=O)cc1-2 (stereo not drawn) | 5 | 332 | 62 |  |
| COc1cc2c(cc1OCCCN1CCC3(CCCO3)CC1)CC(C(C)C)n1cc(C(=O)O)c(=O)cc1-2 (stereo not drawn) | 62 | 217 | > 1000 |  |
| COc1cc2c(cc1N1CCC3(CCN(C(=O)OC(C)(C)C)CC3)C1)CC(C(C)C)n1cc(C(=O)O)c(=O)cc1-2 (stereo not drawn) | 16 | 50 | 111 |  |
| COc1cc2c(cc1N1CCC(C(=O)O)CC1)CC(C(C)C)n1cc(C(=O)O)c(=O)cc1-2 (stereo not drawn) | 1240 | 405 | > 1000 |  |
| COc1cc2c(cc1N1CCC(C(F)(F)F)CC1)CC(C(C)C)n1cc(C(=O)O)c(=O)cc1-2 (stereo not drawn) | 30 | 80 | 204 |  |
| COc1cc2c(cc1N1CCC3(CC1)OCCO3)CC(C(C)C)n1cc(C(=O)O)c(=O)cc1-2 (stereo not drawn) | 12 | 0.5 | 87 |  |
| COc1cc2c(cc1N1CCC3(C1)OCCO3)C[C@@H](C(C)C)n1cc(C(=O)O)c(=O)cc1-2 | 4 |  | 84 | Activity [6]: Non-Toxic; Activity [10]: Non-Toxic |
| COc1cc2c(cc1N1CCC3(C1)OCCO3)C[C@H](C(C)C)n1cc(C(=O)O)c(=O)cc1-2 | 126 |  | 668 |  |
| COc1cc2c(cc1N1CCC3(CCOCC3)C1)C[C@@H](C(C)C)n1cc(C(=O)O)c(=O)cc1-2 | 5 |  | 71 | Activity [6]: Non-Toxic; Activity [10]: Non-Toxic |
| COc1cc2c(cc1N1CCC3(CCCO3)CC1)CC(C(C)C)n1cc(C(=O)O)c(=O)cc1-2 (stereo not drawn) | 27 | 40 | 295 |  |
| COc1cc2c(cc1N1CC3COCC3C1)CC(C(C)C)n1cc(C(=O)O)c(=O)cc1-2 (stereo not drawn) | 14 | 64 | 236 |  |
